Assay results as given in ChEMBL document CHEMBL1212749, “In vitro activity of mirincamycin (U24729A) against Plasmodium falciparum isolates from Gabon” (Antimicrob Agents Chemother, 2010).
pIC50: −log10 of the molar value.

Legend:
Plasmodium falciparum [1] = assay: Ratio of IC50 for Plasmodium falciparum 3D7A after 6 days to IC50 for Plasmodium falciparum 3D7A after 3 days by HRP2 enzyme-linked immunosorbent assay; type: functional
Plasmodium falciparum [2] = assay: Antimalarial activity against Plasmodium falciparum clinical isolate after 6 days by HRP2 enzyme-linked immunosorbent assay; type: functional, organism-based; conditions: 144 h

Row | pIC50 (Plasmodium falciparum [2]) | Structure (SMILES) | Ratio IC50 (Plasmodium falciparum [1])
1 |  | CCCCCC1CN[C@@H](C(=O)N[C@H]([C@H]2O[C@H](SC)[C@H](O)[C@@H](O)[C@H]2O)[C@@H](C)Cl)C1 (stereo partly drawn) | > 10000
2 | 7.94 | CCC[C@@H]1C[C@@H](C(=O)N[C@@H]([C@H]2O[C@H](SC)[C@H](O)[C@@H](O)[C@H]2O)[C@H](C)Cl)N(C)C1 [CLINDAMYCIN] | 
3 | 6.14 | C[C@H]1c2cccc(O)c2C(=O)C2=C(O)[C@]3(O)C(=O)C(C(N)=O)=C(O)[C@@H](N(C)C)[C@@H]3[C@@H](O)[C@@H]21 [DOXYCYCLINE] | 
